From patent US20110178016A1, “PULSE PARATHYROID HORMONE FOR TREATMENT OF THE HEM[…], STROMAL CELL LOSS, AND VASCULAR INJURY RESULTING FROM ACUTE EXPOSURE TO LETHAL RADIATION” (priority 2008, published 2011)
Entries after “also recorded” stand apart in the source; their conditions may differ.

Assays:
[1] = PTH levels after subcutaneous administration in transplanted monkeys; format: in vivo, nonhuman primates (monkeys); details: 5 micrograms/kg subcutaneously
Description: Bone marrow transplant studies by Calvi and colleagues characterized this process in the syngeneic mouse model of osteoblastic activation. To see if PTH could enhance allogeneic stem cell engraftment in nonhuman primates (monkeys), donors were MHC mismatched based on recipient proliferation against donor cells in the mixed lymphocyte culture and by disparity at the class I antigen, Bw6. This disparity permitted tracking of Bw6+ donor cells following transplantation into Bw6-recipients. Eight control recipients were conditioned with thymoglobulin, rituxan, fludarabine, and melphalan. Six animals received the conditioning regimen supplemented with parathyroid hormone beginning on the first day of the conditioning regimen and administered daily at a dose of 5 micrograms/kg subcutaneously. An allogeneic stem cell transplant consisting of 2−4×10^6 CD34+cells/kg was administered on day 0. Outcome measures included PTH levels, CBCs, and donor engraftment via flow cytometry.

[2] = tested on: mice exposed to lethal radiation (772 cGy); assay: Survival of mice after lethal irradiation (772 cGy) with PTH treatment; format: in vivo, B6 mice; details: for Thirty day survival: no treatment 50%; for 49 day survival: vehicle 60%
Experimental: In a study of 98 mice exposed to lethal irradiation, half received placebo (saline) and half received daily PTH 80 mcg/kg/day for 28 days. There was a survival advantage in the PTH treated group, 24/49 survived vs placebo, 16/49, (95% CI, 0.7707, 2.462).
80 ug/day PTH therapy followed lethal irradiation (772 cGy) exposure. 49 mice were treated with daily PTH (80 mcg/kg/d sc×28 days) 24 hours following a lethal radiation exposure of 772 cGy and compared to 49 vehicle treated control animals. Outcome measures included platelet counts, survival, and other hematopoietic studies. When censoring for technical deaths, 46 animals were analyzed in the placebo group (daily saline injections) with 47 analyzed from the daily PTH 80 mcg/kg/day treatment. […] Thirty-day survival in the placebo group was 18/46 or 39%. Of the PTH treated animals 26/47 animals survived (55%, p=0.2).
In another set of dose finding experiments, the same radiation exposure was used (772 cGy). Three treatment groups were studied: (1) untreated (no placebo, n=8), (2) treated with 200 mcg/kg PTH daily beginning 24 hours after radiation exposure, n=12, (3) treated with 200 mcg/kg PTH twice daily beginning 24 hours after radiation exposure, n=12.
Comparison was made of animals treated with PTH, 200 ug/day, 200 ug twice daily (BID) vs those receiving no PTH treatment following lethal irradiation (772 cGy).
Three groups of B6 mice underwent irradiation.
Group 1 received no treatment, n=8.
Group 2 received PTH, 200 micrograms/kg/day, n=10, first begun 24 hours following radiation exposure to 772 cGy and continued for 28 days.
Group 3 received the same duration of PTH but instead was treated twice daily, 200 micrograms/kg/day BID for a daily total dose of 400 mcg/kg/day, n=12.
Four cohorts of B6 mice were irradiated to uniform, total body, midline tissue dose at a dose rate of 80+2.5 cGy/min to a dose of 772 cGy.
Group 1 received vehicle control (saline) treatment×28 days, beginning 24 hours after radiation, n=10.
Group 2 received PTH, 400 micrograms/kg/day, n=10, first begun 24 hours following radiation exposure to 772 cGy and continued for 28 days.
Group 3 received PTH, 1000 micrograms/kg/day, n=10, 24 hours following radiation, and then 400 mcg/kg/day for 7 days.
Group 4 received PTH, 400 micrograms/kg/day, n=10, 24 hours following radiation, and continued for 7 days.

[3] = Serum PTH levels in mice after final dose (Mesoscale); format: in vivo; details: 400 mcg/kg PTH, final dose on day 28
Experimental: Bone marrow was analyzed for colony forming units (CFU) (FIGS. 9A and 9B), hematopoietic stem cell content. Serum was analyzed for PTH levels on the final day of the study to determine the duration of detectable PTH in the serum following the final dose.

cynomolgus monkeys = assay: Toxicity studies of a 21 day course of PTH in monkeys (cardiac monitoring, serum calcium, kidney MRI); format: in vivo
Experimental: (§1) Two cynomolgus monkeys (hereafter referred to as CYNOs) were treated with a 21 day course of daily subcutaneous PTH at either 100 mcg/kg (monkey 7801) or 50 mcg/kg (monkey 7872). Hematopoietic outcome measures included:
(d) MRI of the kidneys upon completion of the 21 day course.
Three cynomolgus monkeys (hereafter referred to as CYNOs) were treated with a 21 day course of daily subcutaneous PTH at either 50 ug/kg (7872), 100 ug/kg (7801), or 250 ug/kg (7876).
Two were irradiated (7801 and 7875) at a lethal dose of 682 cGy and administered 100 ug/kg. Of note, 7801 underwent a washout period prior to undergoing irradiation and subsequent PTH therapy
Outcome measures included:
(a) continuous cardiac monitoring and serum calcium
(e) MRI of the kidneys upon completion of the 21 day course.

[4] = Serum PTH levels for PK analysis in non-irradiated monkeys; format: in vivo, cynomolgus monkeys; details: non-irradiated monkeys 7801 (100 mcg/kg/d) and 7872 (50 mcg/kg/d), days 1 and 18
Experimental: PTH becomes undetectable by 4-6 hours after dosing, despite extremely high doses of PTH.
as §1
(c) serum PTH levels; and […]

[5] = clinical studies, cited from earlier work
[6] = CYNOs, 21 day course, 100 mcg/kg or 50 mcg/kg
[7] = highest dose, 250 ug/kg, administered for 21 days

With CC[C@H](C)[C@H](NC(=O)[C@H](CCC(=O)O)NC(=O)[C@H](CO)NC(=O)[C@@H](NC(=O)[C@@H](N)CO)C(C)C)C(=O)N[C@@H](CCC(N)=O)C(=O)N[C@@H](CC(C)C)C(=O)N[C@@H](CCSC)C(=O)N[C@@H](Cc1cnc[nH]1)C(=O)N[C@@H](CC(N)=O)C(=O)N[C@@H](CC(C)C)C(=O)NCC(=O)N[C@@H](CCCCN)C(=O)N[C@@H](Cc1cnc[nH]1)C(=O)N[C@@H](CC(C)C)C(=O)N[C@@H](CC(N)=O)C(=O)N[C@@H](CO)C(=O)N[C@@H](CCSC)C(=O)N[C@@H](CCC(=O)O)C(=O)N[C@@H](CCCN=C(N)N)C(=O)N[C@H](C(=O)N[C@@H](CCC(=O)O)C(=O)N[C@@H](Cc1c[nH]c2ccccc12)C(=O)N[C@@H](CC(C)C)C(=O)N[C@@H](CCCN=C(N)N)C(=O)N[C@@H](CCCCN)C(=O)N[C@@H](CCCCN)C(=O)N[C@@H](CC(C)C)C(=O)N[C@@H](CCC(N)=O)C(=O)N[C@@H](CC(=O)O)C(=O)N[C@H](C(=O)N[C@@H](Cc1cnc[nH]1)C(=O)N[C@@H](CC(N)=O)C(=O)N[C@@H](Cc1ccccc1)C(=O)O)C(C)C)C(C)C [PTH, Teriparatide] the “time by which PTH levels were undetectable” value [1] was at most 4 h, the Tmax ([1]; monkey, in vivo, sc, read-out: time of peak PTH levels after administration (converted)) was 30 min and the “survival (survived/total)” value ([2]; 98 mice, lethal irradiation, PTH 80 mcg/kg/day for 28 days, placebo 16/49) was 24/49. The reduction in mortality ([2]; 772 cGy, 200 mcg/kg experiments, LD50/30 changed to LD25/30) was 25%, the “thrombocytopenia duration or nadir” value ([2]; 772 cGy, PTH 80 mcg/kg/day vs placebo) was “no significant difference” and the Thirty day survival ([2]; 772 cGy, PTH 200 mcg/kg daily for 28 days (8/12)) was 67%. It also gave a Thirty day survival ([2]; 772 cGy, PTH 200 mcg/kg twice daily for 28 days (9/12)) of 75%, a 49 day survival ([2]; 772 cGy, PTH 400 mcg/kg/day x 7 days (Group 4), p=0.02) of 100% and a 49 day survival ([2]; 772 cGy, PTH 400 micrograms/kg/day x 28 days (Group 2, 9/10), p=0.05) of 90%. For the same molecule, the 49 day survival ([2]; 772 cGy, PTH 1000 micrograms/kg/day then 400 mcg/kg/day for 7 days (Group 3, 9/10), p=0.05) was 90%, the “preputial inflammation and abscess among survivors” value ([2]; 1000 mcg/kg dose group, control survivors 3/6) was “⅙” and the 30-day survival ([2]; 7 day course of PTH 400 mcg/kg/day following an LD50/30 radiation exposure) was 100%. The survival ([2]; daily or twice doses of PTH, lethal irradiation dose expected to result in 50% death of mice (summary)) was 100%, the “preputial inflammation and abscess / infection among survivors” value ([2]; other PTH groups (400 mcg/kg/day x 28 days or x 7 days), control survivors 3/6) was “None were observed; also recorded: prevents infection” and the “PTH in sera after final PTH dose” value [3] was “some persistence of PTH at 24 hours”. The “time of return of serum PTH to baseline after final dose” value [3] was 48 h, the tolerability (cynomolgus monkeys; 250 ug/kg up to 19 days, non-irradiated cynomolgus monkey) was “well tolerated” and the Cardiac monitoring (cynomolgus monkeys; [6]) was “some shortening of the Qt segment but no life threatening arrythmias”. The serum calcium peak (cynomolgus monkeys; [6]) was at most 11.5 mg/dL, the “time for serum calcium to return to normal range after dosing” value (cynomolgus monkeys; [6]) was 6 to 10 h and the “T wave height and ST-intervals over time” value (cynomolgus monkeys; [7]) was “some decrease”. The arrhythmias (cynomolgus monkeys; [7]) was “No life-threatening arrhythmias”, the “tolerance in toxicity studies” value (cynomolgus monkeys; irradiated and non-irradiated monkeys, doses comparable to doses to ameliorate radiation damage) was “tolerated” and the serum calcium levels (cynomolgus monkeys; irradiated monkeys 7875 and 7801, 100 ug/kg, exception day 19 for 7801) was “normal calcium levels except one timepoint”. The BUN or creatinine (cynomolgus monkeys; monkeys 7801 (100 mcg/kg) and 7872 (50 mcg/kg), 21 day course) was “No change”, the “MRI examination of the kidneys” value (cynomolgus monkeys; monkeys 7801 (100 mcg/kg) and 7872 (50 mcg/kg), after 21 day course) was “no cystic degeneration or tumors” and the serum calcium level (cynomolgus monkeys; non-irradiated animal 7876, 250 ug/kg, 21st day of dosing, with some somnolent behavior) was 17 mg/dL. For the same molecule, the “toxicity during the first 20 days of dosing” value (cynomolgus monkeys; three non-irradiated cynomolgus monkeys, 50, 100, 250 ug/kg, calcium slightly elevated) was “did not experience toxicity”, the “time after dosing by which PTH becomes undetectable in serum” value [4] was 4 to 6 h and the toxic effect ([5]; even with chronic treatment) was “no toxic effect”. The “biological potency vs full-length PTH protein” value [5] was “comparable biological potency”.
